According to patent publication US8802132B2, “Anti-microbial tissue paper and process to manufacture same” (Cascades Canada ULC, priority 2010, dated 2014):

How the values were obtained:
[1] = Benzalkonium chloride release from wetted paper, lab blender extraction method; type: physicochemical; conditions: hand towel made of recycled pulp; cationizing agent about 1.2 wt % (12 kg/T); benzalkonium chloride about 1 wt %
Source text: As mentioned above, the cationizing agent at least partially neutralizes the paper anionic charges. Thereby, a portion of the antimicrobial agent, which can also be cationic, is not retained on the tissue paper when the latter is wetted and is thereby released. In an embodiment, the tissue paper has a release rate between approximately 0.01 wt % and 0.6 wt % when wetted. In an alternative embodiment, the tissue paper has a release rate between approximately 0.05 wt % and 0.2 wt % when wetted. For example, a tissue paper containing about 0.3 wt % of antimicrobial agent can release about 0.1 wt % of antimicrobial agent when wetted. The antimicrobial agent released from the tissue paper is measured relatively to the original, substantially dry tissue paper weight including the cationizing and antimicrobial agents. The antimicrobial agent released from the tissue paper is measured in a solution, such as water, following extraction. For the release rates mentioned in the application, the extraction is carried out by the lab blender method described below. The antimicrobial agent in the solution is measured by a method such as and without being limitative biphasic titration or high performance liquid chromatography (HPLC).
The amount of antimicrobial agent released will be highly dependent on the method used to retrieve it from the paper. […]

[2] = Charge density of cationizing agents, antimicrobial agent and fibres; type: physicochemical

## CCCCCCCCCCCCCCCC[N+](C)(C)C.[Cl-] [Cetyltrimethylammonium chloride, cetyltrimethylammonium chloride]
[1]
  Benzalkonium chloride released: 0.23 % (w/w)
[2]; cationic agent of Table 3
  Charge density: 3.76 eq/kg

## benzalkonium chloride [Antimicrobial agent]
[2]; Table 4, recycled deinked pulp (DIP) hand towel
  Charge density: +2.9 equiv/kg
[2]; Table 5, virgin bleached Kraft hand towel
  Charge density: +2.9 equiv/kg
